The test deals with P388 leukemia ip, CD2F1 mice, survival T/C. Kind of test: NCI In Vivo Anticancer Drug Screen. Data for tumor model P388 Leukemia (intraperitoneal) in CD2F1 (CDF1) mice. Conditions: endpoint: median survival time, higher = longer survival. The gist of the method: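 Mice carrying the transplanted tumor received test compound or vehicle. Survival was recorded in each group, and the value is the treated-group measurement divided by that of the vehicle-treated control group.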

[1] abbreviates: dose: 50.0 mg/kg/injection, schedule: Q01DX005 (ip), vehicle: saline with Tween-80.
Setting [2] is: dose: 100.0 mg/kg/injection, schedule: Q01DX005 (ip), vehicle: saline with Tween-80.
The mark [3] stands for this setting: dose: 50.0 mg/kg/injection, schedule: Q01DX009 (ip), vehicle: Klucel (hydroxypropylcellulose) (HPC).
Where [4] appears, read: dose: 100.0 mg/kg/injection, schedule: Q01DX009 (ip), vehicle: Klucel (hydroxypropylcellulose) (HPC).
Where [5] appears, read: dose: 200.0 mg/kg/injection, schedule: Q01DX009 (ip), vehicle: Klucel (hydroxypropylcellulose) (HPC).
Where [6] appears, read: dose: 200.0 mg/kg/injection, schedule: Q01DX005 (ip), vehicle: saline with Tween-80.
The mark [7] stands for this setting: dose: 25.0 mg/kg/injection, schedule: Q01DX009 (ip), vehicle: saline with Tween-80.
Where [8] appears, read: dose: 50.0 mg/kg/injection, schedule: Q01DX009 (ip), vehicle: saline with Tween-80.
[9] abbreviates: dose: 200.0 mg/kg/injection, schedule: Q01DX009 (ip), vehicle: saline with Tween-80.

The source of these data is PubChem BioAssay AID330 (DTP/NCI, 2004).

Where “and” joins values, the source holds several entries; their conditions need not be identical. Equal values may be shown once. Toxic doses and inconclusive results are not listed.

In the case of `NC(=O)c1[nH]c(=O)[nH]c(=O)c1CSc1ccc(Cl)cc1`, the T/C is, setting by setting: (dose: 6.25 mg/kg/injection, schedule: Q01DX005 (ip), vehicle: saline with Tween-80) 99 % of control; (dose: 12.5 mg/kg/injection, schedule: Q01DX005 (ip), vehicle: saline with Tween-80) 97 % of control; (dose: 25.0 mg/kg/injection, schedule: Q01DX005 (ip), vehicle: saline with Tween-80) 107 % of control; under setting [1], 109 % of control; under setting [2], 111 % of control.

Take `O=C1C(=Cc2ccccc2)C(=O)c2ccccc21`: the T/C runs as follows: (dose: 25.0 mg/kg/injection, schedule: Q04DX002 (ip), vehicle: saline with Tween-80) 108 % of control; (dose: 50.0 mg/kg/injection, schedule: Q04DX002 (ip), vehicle: saline with Tween-80) 109 % of control; (dose: 100.0 mg/kg/injection, schedule: Q04DX002 (ip), vehicle: saline with Tween-80) 109 % of control; (dose: 200.0 mg/kg/injection, schedule: Q04DX002 (ip), vehicle: saline with Tween-80) 107 % of control; (dose: 400.0 mg/kg/injection, schedule: Q04DX002 (ip), vehicle: saline with Tween-80) 112 % of control.

Regarding `O=[N+]([O-])c1ccc(NN=NCCF)cc1`, the T/C was 102 % of control and 94 % of control (dose: 0.44 mg/kg/injection, schedule: Q01DX005 (ip), vehicle: other); 102 % of control and 94 % of control (dose: 0.88 mg/kg/injection, schedule: Q01DX005 (ip), vehicle: other); 105 % of control and 124 % of control and 94 % of control (dose: 1.75 mg/kg/injection, schedule: Q01DX005 (ip), vehicle: other); 100 % of control and 106 % of control and 94 % of control (dose: 3.5 mg/kg/injection, schedule: Q01DX005 (ip), vehicle: other); 109 % of control (dose: 7.0 mg/kg/injection, schedule: Q01DX005 (ip), vehicle: other).

As to `S=C(NCCCCCCNC(=S)Nc1ccc2ccccc2n1)Nc1ccc2ccccc2n1`, the T/C under setting [3] is 100 % of control, the T/C under setting [4] was 97 % of control and the T/C under setting [5] was 91 % of control.

For the molecule `CC(=O)OCCNc1n[nH]c(=O)c2ccncc12`, the T/C (dose: 30.0 mg/kg/injection, schedule: Q01DX005 (ip), vehicle: saline with Tween-80) was 95 % of control; the T/C (dose: 60.0 mg/kg/injection, schedule: Q01DX005 (ip), vehicle: saline with Tween-80) is 93 % of control; the T/C (dose: 120.0 mg/kg/injection, schedule: Q01DX005 (ip), vehicle: saline with Tween-80) was 101 % of control; the T/C (dose: 240.0 mg/kg/injection, schedule: Q01DX005 (ip), vehicle: saline with Tween-80) was 113 % of control.

In the case of `CCOC(=O)CCCCCCCNC(=O)N1c2c(nc(N)[nH]c2=O)NCC1CNc1ccc(C(=O)NC(CCC(=O)O)C(=O)O)cc1` (stereo unspecified), the T/C reads like this: (dose: 50.0 mg/kg/injection, schedule: Q01DX001 (ip), vehicle: sodium bicarbonate) 100 % of control; (dose: 100.0 mg/kg/injection, schedule: Q01DX001 (ip), vehicle: sodium bicarbonate) 101 % of control; (dose: 200.0 mg/kg/injection, schedule: Q01DX001 (ip), vehicle: sodium bicarbonate) 100 % of control.

Regarding `CSCCC(NP(=S)(c1ccccc1)c1ccccc1)C(=O)O` (stereo unspecified), the T/C under setting [3] is 104 % of control and 107 % of control; the T/C under setting [4] was 107 % of control; the T/C under setting [5] is 101 % of control and 94 % of control.

Consider `c1ccc(CC2NCCc3c2[nH]c2ccccc32)cc1` (stereo unspecified), for which the T/C is, setting by setting: under setting [1], 100 % of control; under setting [2], 99 % of control; under setting [6], 94 % of control.

As to `CNC(=O)OCc1c(-c2ccccc2)c(-c2ccccc2)n(C)c1COC(=O)NC`, the T/C is, setting by setting: (dose: 1.56 mg/kg/injection, schedule: Q01DX009 (ip), vehicle: distilled water + Tween-80) 102 % of control; (dose: 12.5 mg/kg/injection, schedule: Q01DX009 (ip), vehicle: distilled water + Tween-80) 154 % of control and 164 % of control; (dose: 25.0 mg/kg/injection, schedule: Q01DX009 (ip), vehicle: distilled water + Tween-80) 160 % of control and 174 % of control; (dose: 50.0 mg/kg/injection, schedule: Q01DX009 (ip), vehicle: distilled water + Tween-80) 165 % of control and 171 % of control.

`O=C(O)/C=C\C(=O)ONCc1ccccc1`: the T/C by setting is: under setting [1], 106 % of control; under setting [2], 106 % of control; under setting [6], 106 % of control.

With `CC1CCC(C(C)C)C(NC(=O)c2ccncc2)C1` (stereo unspecified), the T/C (dose: 50.0 mg/kg/injection, schedule: Q01DX005 (ip), vehicle: Klucel (hydroxypropylcellulose) (HPC)) was 100 % of control; the T/C (dose: 100.0 mg/kg/injection, schedule: Q01DX005 (ip), vehicle: Klucel (hydroxypropylcellulose) (HPC)) is 101 % of control; the T/C (dose: 200.0 mg/kg/injection, schedule: Q01DX005 (ip), vehicle: Klucel (hydroxypropylcellulose) (HPC)) is 105 % of control.

On to `[Br][Sn]([Br])([S]c1ccccn1)[S]c1ccccn1`, for which the T/C by setting is: (dose: 12.5 mg/kg/injection, schedule: Q01DX009 (ip), vehicle: saline with Tween-80) 111 % of control; under setting [7], 103 % of control; under setting [8], 100 % of control and 95 % of control; under setting [9], 89 % of control.

On to `Nc1ccc2ccccc2c1N=Nc1ccccc1`, for which the T/C was 117 % of control under setting [3]; 118 % of control under setting [4]; 120 % of control under setting [5]; 117 % of control (dose: 400.0 mg/kg/injection, schedule: Q01DX009 (ip), vehicle: Klucel (hydroxypropylcellulose) (HPC)).

In the case of `CC1=CC(OC(C)C)OC1=O` (stereo unspecified), the T/C runs as follows: (dose: 50.0 mg/kg/injection, schedule: Q01DX005 (ip), vehicle: saline) 108 % of control; (dose: 100.0 mg/kg/injection, schedule: Q01DX005 (ip), vehicle: saline) 110 % of control; (dose: 200.0 mg/kg/injection, schedule: Q01DX005 (ip), vehicle: saline) 110 % of control.

Consider `Cc1ccc(/C2=C(\c3ccc(C)cc3)N(c3ccc(C)cc3)CCCCN2c2ccc(C)cc2)cc1`, for which the T/C by setting is: (dose: 100.0 mg/kg/injection, schedule: Q01DX001 (ip), vehicle: Klucel (hydroxypropylcellulose) (HPC)) 92 % of control; (dose: 200.0 mg/kg/injection, schedule: Q01DX001 (ip), vehicle: Klucel (hydroxypropylcellulose) (HPC)) 87 % of control; (dose: 400.0 mg/kg/injection, schedule: Q01DX001 (ip), vehicle: Klucel (hydroxypropylcellulose) (HPC)) 92 % of control.

For `Cc1nc(=O)oc(NC(C)C)c1Cl`, the T/C was 100 % of control and 107 % of control under setting [7]; 106 % of control and 95 % of control under setting [8]; 110 % of control (dose: 50.0 mg/kg/injection, schedule: Q01DX009 (ip), vehicle: saline); 113 % of control and 97 % of control (dose: 100.0 mg/kg/injection, schedule: Q01DX009 (ip), vehicle: saline with Tween-80); 103 % of control (dose: 100.0 mg/kg/injection, schedule: Q01DX009 (ip), vehicle: saline); 99 % of control and 116 % of control under setting [9].
